Measured values from publication PMC9029050, “The Effectiveness of Isoplumbagin and Plumbagin in Regulating Amplitude, Gating Kinetics, and Voltage-Dependent Hysteresis of erg-mediated K^+ Currents” (Biomedicines, 2022).

Tested on: T1, erg-mediated K+ channel (Kerg, KV11)
T1 construct: gene Kcnh2; native channel in GH3 pituitary tumor cells
Test: whole-cell patch clamp of native IK(erg) in GH3 cells
Assay type: cell-based

Compound: CC1=CC(=O)c2cccc(O)c2C1=O [isoPLB, 8-hydroxy-2-methylnaphthalene-1,4-dione]
- IC50: 2400 nM
